Source: patent publication US7972831B2, “Lipases from thermophilic anaerobes” (Novozymes A/S, priority 2004, dated 2011)
Where “and” joins values, the source holds several entries; their conditions need not be identical. Identical values can stand only once.

Columns and labels:
lipase [1] = experiment: Effects of metal ions on lipase activity; format: biochemical; conditions: metal ions up to 10 mM
Source text: The activity was decreased by the following ions: Zn2+, Fe2+, Fe3+ and Cr3+.

lipase of SEQ ID NO: 2 [2] = experiment: Substrate specificity for pNP-esters; format: biochemical, Thermoanaerobacter thermohydrosulfuricus; conditions: pNP-ester 1 mM, pH 8.0, 10 min at 70° C.
lipase of SEQ ID NO: 2 [3] = experiment: Effect of solvents on lipase activity; format: biochemical, Thermoanaerobacter thermohydrosulfuricus; conditions: solvent up to 50% by volume
lipase of SEQ ID NO: 2 [4] = experiment: Substrate specificity with triacylglycerols; format: biochemical, Thermoanaerobacter thermohydrosulfuricus; conditions: triacylglycerol 10 mM, pH 8.0, 25 h at 70° C.
Procedure: The lipase of SEQ ID NO: 2 was tested by reaction with various triacylglycerols 10 mM (pH 8.0) as substrates: for 25 h at 70° C. Similar results were obtained with the lipase of SEQ ID NO: 4.

[5] = tested on: lipase from T. thermohydrosulfuricum (SEQ ID NO: 2); experiment: Alcoholysis of triacylglycerols (positional specificity towards triglycerides); format: biochemical, Thermoanaerobacter thermohydrosulfuricus
Procedure: Alcoholysis of various triacylglycerols catalyzed by the lipase of SEQ ID NO: 2 were tested. All substrates were alcoholyzed by the lipase. […] For other substrates the conversions were above 40%. The lipase catalysed the synthesis of 1,3-diacylglycerides and 1- and 3-monoacylglycerides from triacylglycerides at highest rate. No sn2-monoglyceride was produced. […] With the length of the ester bonds the 2-positional specificity of the protein increased.
The positional specificity of the lipase from T. thermohydrosulfuricum (SEQ ID NO: 2) was tested towards the following triglycerides (TG, triacylglycerols): trilaurin (C12), trimyristin (C14), tripalmitin (C16), tristearin (C18), Triolein (C18:1). Each TG (3 mmol) was dissolved in organic solvent (2 ml acetone) and pre-equilibrated at 65° C. for 15 min, 400 rpm. Dry ethanol (3 mmol) was added and reaction mixture was incubated at 65° C. for 15 min, 400 rpm. Lipase (10% based on TG weight) was added to start reaction. Reaction was carried out in a 4-ml screw-capped vial and the reaction mixture was mixed with magnetic stirrer (400 rpm). Aliquot amount of reaction mixture (20 μl) was periodically withdrawn and diluted with chloroform (80 μl) to appropriate dilution, followed by analysis with latroscan to determine acylglycerol composition.
Changes in glycerides composition of the reaction medium during reaction were quantitatively determined by TLC/FID using latroscan analytical methods (latroscan, latron Laboratories, Inc., Tokyo, Japan). Before analysis, a blank of the chromarod was scanned. After treating chromarod with boric acid (3%) and drying for 5 min, 0.1 μl of the reaction medium (diluted in chloroform at appropriate dilution) is spotted onto the chromarod and the spotted sample was developed for 10 cm in a mixture of benzene:chloroform:acetic acid (50:30:0.5, by vol) for 35 min. After drying, the chromarod in an oven at 110° C. for 5 min, scanning is performed at a hydrogen flow rate of 160 ml/min and an air flow rate of 2.01/min to produce a chromatogram.
The results of the alcoholysis of the triacylglycerols catalysed by the lipase from […] after 7 h reactions time at 65° C. are given below as % of remaining substrate (TG) and % of the following products: fatty acid (FA), diglycerides (DG, with 1,3-DG separated from 1,2- and 2,3-DG), monoglyceride (MG, with 2-MG separated from 1- and 3-MG).

lipase [6] = experiment: Effect of detergent ingredients on lipase activity; format: biochemical; conditions: 1.5 hours at 30° C., up to 10% by weight of compound
Procedure: The activity of the lipase was tested after incubation for 1.5 hours at 30° C. with up to 10% by weight of various compounds.

lipase of SEQ ID NO: 2 [7] = experiment: Effect of inhibitors on lipase activity; format: biochemical, Thermoanaerobacter thermohydrosulfuricus; conditions: for effect on the activity of the lipase: up to 10 mM
lipase of SEQ ID NO: 4 = experiment: Effect of inhibitors on lipase activity; format: biochemical, Caldanaerobacter subterraneus subsp. tengcongensis; conditions: for effect on the activity of the lipase: up to 10 mM
lipase of SEQ ID NO: 2 [8] = experiment: Enantioselectivity of ester hydrolysis; format: biochemical, Thermoanaerobacter thermohydrosulfuricus
Procedure: The (S)-alcohols were formed. The lipase was more enantioselective towards butynol butyrate than towards butynol acetate. Over time the conversion increased for all four substrates and reached above 20-30% after 24 h of reactions time. Over time in the contrast to the conversion the enantioselectivity of the enzyme towards both substrates decreased for butynol butyrate from 16.7 to 8.06 and for butynol acetate from 9.15 to 2.65 after 40 h of reactions time. […] For two other substrates the enantioselectivity of the lipase (E≧1) was constant over time.
Target sequence in this assay (as listed by the source): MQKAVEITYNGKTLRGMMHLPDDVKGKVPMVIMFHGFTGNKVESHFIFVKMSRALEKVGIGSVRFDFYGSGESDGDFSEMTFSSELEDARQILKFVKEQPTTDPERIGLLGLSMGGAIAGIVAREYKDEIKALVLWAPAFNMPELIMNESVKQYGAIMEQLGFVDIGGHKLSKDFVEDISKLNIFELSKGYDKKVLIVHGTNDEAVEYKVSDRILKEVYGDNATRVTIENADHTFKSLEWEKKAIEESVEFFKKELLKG

[9] = alcoholysis with ethanol in acetone, 7 h at 65° C.

[Cr+3] [Cr3+]
lipase activity in the presence of metal ions (lipase [1]): decreased

[Co+2] [Co2+]
lipase activity in the presence of metal ions (lipase [1]): nearly unchanged

[Al+3] [Al3+]
lipase activity in the presence of metal ions (lipase [1]): nearly unchanged

CCCCCC(=O)Oc1ccc([N+](=O)[O-])cc1 [pNP-caproate, pNP-caproate (C6:0)]
Relative activity (lipase of SEQ ID NO: 2 [2]): 81

CC(C)(C)O [tert-butanol]
effect on the activity of the lipase (lipase of SEQ ID NO: 2 [3]): little effect

Triolein (C18:1)
Relative activity (lipase of SEQ ID NO: 2 [4]): 12 | DG 1,3- [5, 9]: 18% | FA (fatty acid) [5, 9]: 2% | MG 1- 3- [5, 9]: 17% | TG (remaining substrate) [5, 9]: 63%

CCCCCCCC(=O)Oc1ccc([N+](=O)[O-])cc1 [pNP-caprylate, pNP-caprylate (C8:0)]
Relative activity (lipase of SEQ ID NO: 2 [2]): 90

[Zn+2] [Zn2+]
lipase activity in the presence of metal ions (lipase [1]): decreased

[Mg+2] [Mg2+]
lipase activity in the presence of metal ions (lipase [1]): nearly unchanged

CCO [ethanol]
effect on the activity of the lipase (lipase of SEQ ID NO: 2 [3]): little effect

CCCCCCCCCCCC(=O)Oc1ccc([N+](=O)[O-])cc1 [pNP-laurate, pNP-laurate (C12:0)]
Relative activity (lipase of SEQ ID NO: 2 [2]): 84

CCCCCCCCCCCCOS(=O)(=O)[O-].[Na+] [SDS]
effect on activity after incubation (lipase [6]): full enzyme inhibition

CCCCCCCCCCCC(=O)OCC(COC(=O)CCCCCCCCCCC)OC(=O)CCCCCCCCCCC [Trilaurin, Trilaurin (C12:0)]
Relative activity (lipase of SEQ ID NO: 2 [4]): 11 | DG 1,2- 2,3- [5, 9]: 6% | DG 1,3- [5, 9]: 12% | FA (fatty acid) [5, 9]: 2% | MG 1- 3- [5, 9]: 22% | TG (remaining substrate) [5, 9]: 58%

CC(=O)OCC(COC(C)=O)OC(C)=O [Triacetin, Triacetin (C2:0)]
Relative activity (lipase of SEQ ID NO: 2 [4]): 5

NC(N)=O [urea]
effect on the activity of the lipase (lipase of SEQ ID NO: 2 [7]): little effect | effect on the activity of the lipase (lipase of SEQ ID NO: 4): little effect

CCCC(=O)Oc1ccc([N+](=O)[O-])cc1 [pNP-butyrate, pNP-butyrate (C4:0)]
Relative activity (lipase of SEQ ID NO: 2 [2]): 57

[Na+] [Na+]
lipase activity in the presence of metal ions (lipase [1]): nearly unchanged

[Cu+2] [Cu2+]
lipase activity in the presence of metal ions (lipase [1]): nearly unchanged

NCCc1ccc(S(=O)(=O)F)cc1 [Pefablock]
inactivation of the lipase (lipase of SEQ ID NO: 2 [7]; 0.1-1 mM): inactivated | inactivation of the lipase (lipase of SEQ ID NO: 4; 0.1-1 mM): inactivated

O=C(O)c1cc[c]([Hg][OH])cc1 [pHMB]
effect on the activity of the lipase (lipase of SEQ ID NO: 2 [7]): little effect | effect on the activity of the lipase (lipase of SEQ ID NO: 4): little effect

O[C@@H](CS)[C@@H](O)CS [DTT]
effect on the activity of the lipase (lipase of SEQ ID NO: 2 [7]): little effect | effect on the activity of the lipase (lipase of SEQ ID NO: 4): little effect

CCCCCCCCCCCCCCCCCC(=O)OCC(COC(=O)CCCCCCCCCCCCCCCCC)OC(=O)CCCCCCCCCCCCCCCCC [Tristearin, Tristearin (C18:0)]
Relative activity (lipase of SEQ ID NO: 2 [4]): 9 | conversion ([5]; alcoholysis of triacylglycerol): 67% | DG 1,3- [5, 9]: 48% | FA (fatty acid) [5, 9]: 10% | MG 1- 3- [5, 9]: 9% | TG (remaining substrate) [5, 9]: 33%

[Sr+2] [Sr2+]
lipase activity in the presence of metal ions (lipase [1]): nearly unchanged

OCCS [b-mercaptoethanol]
effect on the activity of the lipase (lipase of SEQ ID NO: 2 [7]): little effect | effect on the activity of the lipase (lipase of SEQ ID NO: 4): little effect

[Ni+2] [Ni2+]
lipase activity in the presence of metal ions (lipase [1]): nearly unchanged

butynol acetate
enantiopreference (lipase of SEQ ID NO: 2 [8]): (S)-preference | lipase activity towards substrate (lipase of SEQ ID NO: 2 [8]): active | E-value (enantioselectivity) (lipase of SEQ ID NO: 2 [8]; after 40 h of reactions time): 2.65 | E-value (enantioselectivity) (lipase of SEQ ID NO: 2 [8]; initial value): 9.2 and 9.15

CCCCCCCCCC(=O)Oc1ccc([N+](=O)[O-])cc1 [pNP-caprate, pNP-caprate (C10:0)]
Relative activity (lipase of SEQ ID NO: 2 [2]): 100

CCCC(=O)OCC(COC(=O)CCC)OC(=O)CCC [Tributyrin, Tributyrin (C4:0)]
Relative activity (lipase of SEQ ID NO: 2 [4]): 10
